Assay results reported in US9364448B2, “Nitisinone for treatment of oculocutaneous/ocular albinism and for increasing pigmentation” (The United States of America, as represented by the …, priority 2010, dated 2016).

Legend:
[1] = tested on: C57BL/6J-Tyr^c-h/c-h mice (OCA1b model); experiment: Coat and ocular pigmentation, clinical examination and electron microscopy, Tyr^c-h/c-h mice; assay type: in vivo, mouse
Method: Animal Husbandry and Clinical Examination. C57BL/6J mice (Stock #000664), C57BL/6JTyr^c-2J/c-2J mice (Stock #000058, MGI ID#1855985), and C57BL/6Tyr^c-h/c-h (Stock #000104, MGI ID#1855979) were obtained from the Jackson Laboratory (Bar Harbor, Me.). Mice were housed according to the institutional Animal Review Board standards with a 14 hour light/10 hour dark cycle. These studies conformed to the principles for laboratory animal research outlined by the Animal Welfare Act (NIH/HHS) and the ARVO Statement for the Use of Animals in Ophthalmic and Vision Research and were approved by the Institutional Animal Care and Use Committee of the National Eye Institute. Clinical examination and imaging of the anterior segment of mice were performed on gently-restrained, awake mice using a Haag-Streit BQ slit lamp and Imaging Module IM900® software (Haag-Streit, Inc., Mason, Ohio). Clinical examination of the posterior segment was performed on gently restrained, awake mice after dilation with one drop of 1% tropicamide (Alcon Laboratories, Inc., Fort Worth, Tex.) using an indirect ophthalmoscope (Keeler, Windsor, Berkshire, UK) with a 90D condensing lens (Volk, Mentor, Ohio). Fundus images were obtained on mice sedated with intraperitoneally injected […] diluted in normal saline. Images were obtained using a Nikon D.90 digital SLR camera with a Nikon 85 mm f/2.8D micro AF-S ED lens mounted to a custom-made aluminum stand, using a 5 cm long Hopkins rigid otoscope coupled to a Xenon Nova light source (175 watt) and fiberoptic cable (Karl Storz, Tuttlingen, Germany). Mice were euthanized with carbon dioxide according to institutional guidelines.
Drug Dosing and Monitoring.
Using the same protocol as described above, baseline plasma tyrosine, coat color (gross and microscopic), anterior segment pigment, and posterior segment pigment was documented for each mouse prior to initiating experiments. […] These treated mice were compared to an age- and gender-matched cohort of C57BL/6J-Tyr^c-h/c-h mice over the same time period. Corneal irritation due to NTBC treatment was monitored daily. At the start of treatment, an area of hair was plucked/shaved from each mouse's back, which has the effect of stimulating new hair growth and possibly new pigment deposition in the hair shaft. At the end of four weeks' time, plasma tyrosine concentrations were assessed in both treated and control animals.
Assessment of the effect treatment and the end of the experimental time period commences with photodocumentation of coat color, anterior segment pigment and posterior segment pigment of each mouse. The mice were sacrificed using standard CO2 euthanasia protocol. One eye from each mouse was submitted for light microscopy, while the other is prepared for electron microscopy. Liver and kidney tissues were collected and processed for light microscopy histology, to insure no pathology is associated with treatment. Additional blood samples were taken and frozen at the time of euthanasia, for possible future studies. Hair shafts in plucked and non-plucked areas were examined and photographed under light microscopy. Melanosome number and size was quantified in the retinal pigmented epithelial cells (RPE) and choroid of the posterior pole of both treated and untreated mice, in a masked fashion, as previously described above.

[2] = tested on: melanocytes from an OCA-1A patient; experiment: Human melanocyte melanin assay, OCA-1A patient; assay type: cell-based; settings: presence or absence of 1 mM tyrosine
Method: (§1) Human melanocyte culture and melanin assay. Human melanocytes were established from skin punch biopsies. Skin specimens were washed with PBS then treated with 0.25% trypsin-EDTA (Gibco 25200) for about 2 hours followed by vigorous vortexing to separate the epidermis. The epidermis was sectioned and attached to scored patches on the bottom of a 6-well polystyrene culture dish before being covered with melanocyte media. About 1000 ml of melanocyte media was made from 950 ml Ham's F10 (Gibco 1550), 25 ml FBS, 5 ug bFGF (Sigma F0291), 10 μg endothelin (Sigma, E7764, Sigma Chemicals, St. Louis, Mo.), 7.5 mg IBMX (Sigma 17018), 30 μg cholera toxin (Sigma C8052), 3.3 μg TPA (Sigma P8139), 10 ml PenStrepGlutamine, 1 ml fungizone and the media was 0.22 μm filtered.
(§2) Melanocytes were plated on 6 well dishes and grown to confluency. Melanin assays were run in triplicate by supplementing three wells per plate with 1 mM tyrosine (Sigma T8566), using the remaining 3 wells as untreated controls. Treatment time was approximately one week. […] The OD475 was measured and converted to melanin content via a standard curve using synthetic melanin (Sigma M0418). The data were normalized to protein content, determined using a bicinchoninic (BCA) assay kit (BioRad, Inc., Hercules, Calif.). Differences between treated and untreated measurements were analyzed with a two-tailed unpaired t-test. […]

[3] = tested on: wild-type human melanocytes; experiment: Human melanocyte melanin assay, wild-type (control); assay type: cell-based; settings: 1 mM tyrosine, about one week
Method: as §1, §2

[4] = Tyr^c-h/c-h (Himalayan) mice, 4 mg/kg orally every other day, one month

Row | Compound | Fundus pigmentation [1, 4] | Iris pigmentation [1, 4] | Coat pigmentation, treated vs control ([1]; Tyr^c-h/c-h mice, 4 mg/kg orally every other day, one month, shaved patch) | Phenotypic changes ([1]; Tyr^c-h/c-h mice, dose as in Example 1 (1 mg/kg every other day), one month) | RPE and choroidal melanosome pigment content (electron microscopy) ([1]; Tyr^c-h/c-h mice, treated vs control, preliminary data, FIG. 3) | Pigment production [2] | Melanin production [3]
1 | O=C1CCCC(=O)C1C(=O)c1ccc(C(F)(F)F)cc1[N+](=O)[O-] [NTBC, 2-(-2-nitro-4 trifluoromethylbenzoyl)-1,3 cyclohexanedione] | grossly unchanged | some increase in iris pigmentation | observable increase in pigmentation | no phenotypic changes | significant increase | – | –
2 | N[C@@H](Cc1ccc(O)cc1)C(=O)O [tyrosine] | – | – | – | – | – | did not produce detectable pigment | produce significant melanin
